In patent US6794396B2, “Substituted pyridines useful for inhibiting cholesteryl ester transfer protein activity” (Pharmacia Corporation, priority 1998, dated 2004):
Read-outs that look alike come from different tables or passages of the source.

Columns and labels:
CETP = target: T1, CETP (Homo sapiens, UniProt P11597); assay: CETP activity in vitro: transfer of [3H]CE from HDL donor to LDL acceptor particles; type: biochemical
T1 construct: made in house; host or cells: CHO cells (serum-free conditioned medium)
T1 sequence (P11597 18-493): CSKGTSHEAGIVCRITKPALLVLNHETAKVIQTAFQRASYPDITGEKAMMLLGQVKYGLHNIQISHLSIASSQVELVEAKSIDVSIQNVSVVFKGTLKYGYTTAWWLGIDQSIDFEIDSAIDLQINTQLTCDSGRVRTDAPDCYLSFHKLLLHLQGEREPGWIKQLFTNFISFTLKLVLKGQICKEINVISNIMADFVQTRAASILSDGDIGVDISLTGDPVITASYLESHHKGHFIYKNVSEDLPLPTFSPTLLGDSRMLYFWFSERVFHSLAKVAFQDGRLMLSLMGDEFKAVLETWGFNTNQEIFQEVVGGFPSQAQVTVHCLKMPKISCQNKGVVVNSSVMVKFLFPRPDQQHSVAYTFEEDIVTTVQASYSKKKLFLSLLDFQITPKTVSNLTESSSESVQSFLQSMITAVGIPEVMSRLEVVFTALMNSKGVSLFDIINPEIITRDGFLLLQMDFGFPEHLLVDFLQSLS
Outline: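 CETP from conditioned medium of CETP-transfected CHO cells incubated with [3H]CE-labelled HDL donor and LDL acceptor, pH 7.4 Tris buffer with NaCl, EDTA and 1% BSA, 2 h at 37 °C. LDL precipitated with dextran sulfate/MgCl2, filtered, and transferred radioactivity counted; IC50 reported.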

[1] = target: T2, CETP in human plasma or serum pool (Homo sapiens, UniProt P11597); assay: Whole serum CETP activity assay (tritiated cholesterol ester); type: biochemical; conditions: 4 hours at 37° C.
T2 construct: from tissue; host or cells: pooled human EDTA plasma or serum from healthy volunteers
T2 sequence (P11597 18-493): T1 sequence (P11597 18-493)
Experimental: Blood was obtained from healthy volunteers recruited from the personnel of Monsanto Company, Saint Louis, Mo. Blood was either collected in tubes containing EDTA (EDTA plasma pool) or in tubes without EDTA (spun to form the serum pool). The EDTA human plasma pool or human serum pool, previously stored at −20° C., was thawed at room temperature, and centrifuged for 5 minutes to remove any particulate matter. Tritiated HDL, radiolabeled in the cholesteryl ester moiety ([^3H]CE-HDL) as described by Morton and Zilversmit (J. Biol. Chem., 256, 11992-95 (1981) which is incorporated by reference herein), was added to the plasma or serum to a final concentration of (25 μg/ml cholesterol).
Inhibitor compounds were added to the plasma or serum as follows: Equal volumes of the plasma or serum containing the [^3H]CE-HDL (396 μl) were pipetted into micro tubes (Titertube®, Bio-Rad Laboratories, Hercules, Calif.). Compounds, usually dissolved as 20-50 mM stock solutions in DMSO, were serially diluted in DMSO (or an alternative solvent in some cases, such as dimethylformamide or ethanol). Four μl of each of the serial dilutions of inhibitor compounds or DMSO alone were then added to each of the plasma or serum tubes. The tubes were immediately mixed. Triplicate aliquots (100 μl) from each plasma or serum tube were then transferred to wells of 96-well round-bottomed polystyrene microtiter plates (Corning, Corning, N.Y.). Plates were sealed with plastic film and incubated at 37° C. for 4 hours.
Test wells contained plasma or serum with dilutions of inhibitor compounds. Control wells contained plasma or serum with DMSO alone. Blank wells contained plasma or serum with DMSO alone that were left in the micro tubes at 4° C. for the 4 hour incubation and were added to the microtiter wells at the end of the incubation period. VLDL and LDL were precipitated by the addition of 10 μl of precipitating reagent (1% (w/v) Dextran Sulfate (Dextralip50)/0.5M magnesium chloride, pH 7.4) to all wells. The wells were mixed on a plate mixer and then incubated at ambient temperature for 10 min. The plates were then centrifuged at 1000×g for 30 mins at 10° C. The supernatants (50 μl) from each well were then transferred to Picoplate™ 96 plate wells (Packard, Meriden, Conn.) containing […] Microscint™-40 (Packard, Meriden, Conn.). The plates were heat-sealed (TopSeal™-P, Packard, Meriden, Conn.) according to the manufacturers directions and mixed for 30 min.
Radioactivity was measured on a microplate scintillation counter (TopCount, Packard, Meriden, Conn.). […] The maximum percent transfer (in the control wells) was determined using the following equation: [formula]
The percent of control transfer determined in the wells containing inhibitor compounds was determined as follows: [formula]
IC50 values were then calculated from plots of % control versus concentration of inhibitor compound.

[2] = 50% inhibition of [3H]CE transfer from HDL to LDL, 2 hours at 37° C., read-out: IC50(μm)
[3] = IC50(μm), 50% inhibition of [3H]CE transfer from HDL to LDL, 2 hours at 37° C.
[4] = Table 6, compounds of formula T-6, read-out: IC50

IC50 (CETP; [2])	melting point	SMILES	IC50 (CETP; [3])	further results
60 µM	86.5 to 91 °C	COC(=O)c1c(C(F)F)nc(C(F)(F)F)c(C(=O)Sc2ccc(C(C)C)cc2Cc2ccc(F)cc2)c1CC(C)C [Compound 160, Methyl 2-(Difluoromethyl)-4-(2-methylpropyl)-5-{[(2-(4-fluorobenzyl)-4-isopropylphenyl)thio]carbonyl}-6-(trifluoromethyl)-3-pyridinecarboxylate]		
70 µM	105 to 107 °C	COC(=O)c1c(C(F)F)nc(C(F)(F)F)c(C(=O)Sc2ccc(F)cc2Cc2ccc(F)cc2)c1CC(C)C [Compound 161, Methyl 2-(Difluoromethyl)-4-(2-methylpropyl)-5-{[(2-(4-fluorobenzyl)-4-fluorophenyl)thio]carbonyl}-6-(trifluoromethyl)-3-pyridinecarboxylate]		
> 100 µM	102.5 to 105.5 °C	COC(=O)c1c(C(F)F)nc(C(F)(F)F)c(C(=O)Oc2ccccc2[N+](=O)[O-])c1CC(C)C [Compound 166, 3-Methyl 5-(2-Nitrophenyl) 2-(Difluoromethyl)-4-(2-methylpropyl)-6-(trifluoromethyl)-3,5-pyridicarboxylate]		
60 µM	100 to 103.5 °C	COC(=O)c1c(C(F)F)nc(C(F)(F)F)c(C(=O)Oc2cc(C(C)(C)C)cc(C(C)(C)C)c2)c1CC(C)C [Compound 167, 3-Methyl 5-(3,5-Di-t-butylphenyl) 2-(Difluoromethyl)-4-(2-methylpropyl)-6-(trifluoromethyl)-3,5-pyridicarboxylate]		
70 µM	131.5 to 133.5 °C	COC(=O)c1c(C(F)F)nc(C(F)(F)F)c(C(=O)Oc2cc(OC)c(OC)c(OC)c2Cc2ccc(F)cc2)c1CC(C)C [Compound 171, 3-Methyl 5-[2-(4-Fluorobenzyl)-3,4,5-(trimethoxy)phenyl]2-(Difluoromethyl)-4-(2-methylpropyl)-6-(trifluoromethyl)-3,5-pyridicarboxylate]		
> 100 µM	73 to 74.5 °C	COC(=O)c1c(C(F)F)nc(C(F)(F)F)c(C(=O)Oc2ccccc2OC)c1CC(C)C [Compound 172, 3-Methyl 5-(2-Methoxyphenyl) 2-(Difluoromethyl)-4-(2-methylpropyl)-6-(trifluoromethyl)-3,5-pyridicarboxylate]		
70 µM	95 to 99 °C	COC(=O)c1c(C(F)F)nc(C(F)(F)F)c(C(=O)Oc2ccc(C)cc2C)c1CC(C)C [Compound 177, 3-Methyl 5-(2,4-Dimethylphenyl) 2-(Difluoromethyl)-4-(2-methylpropyl)-6-(trifluoromethyl)-3,5-pyridicarboxylate]		
		COC(=O)c1c(C(F)F)nc(C(F)(F)F)c(SSc2ccc(C(C)(C)C)cc2)c1CC(C)C [Compound 180, Methyl 5-(4-t-Butylphenyldithio)-2-(difluoromethyl)-4-(2-methylpropyl)-6-(trifluoromethyl)-3-pyridinecarboxylate]		IC50 (CETP; Table 5, compounds of formula T-5, read-out: IC50): 0.45 µM; IC50 whole serum CETP activity [1]: 9 µM
		COC(=O)c1c(C(F)F)nc(C(F)(F)F)c(CSc2ccc(Cl)c(Cl)c2)c1CC(C)C [Compound 214, Methyl 5-[(3,4-Dichlorophenyl)thiomethyl]-2-(difluoromethyl)-4-(2-methylpropyl)-6-(trifluoromethyl)-3-pyridinecarboxylate]		IC50 (CETP; [4]): 2 µM; IC50 whole serum CETP activity [1]: 70 µM
		COC(=O)c1c(C(F)F)nc(C(F)(F)F)c(CSc2ccc3ccccc3c2)c1CC(C)C [Compound 215, Methyl 5-[(2-Naphthyl)thiomethyl]-2-(difluoromethyl)-4-(2-methylpropyl)-6-(trifluoromethyl)-3-pyridinecarboxylate]		IC50 (CETP; [4]): 2 µM; IC50 whole serum CETP activity [1]: 110 µM

SMILES	IC50 (CETP; [2])	melting point	IC50 (CETP; [3])	further results
COC(=O)c1c(C(F)F)nc(C(F)(F)F)c(C(=O)Sc2ccc(Cl)cc2)c1CC(C)C [Compound 162, Methyl 5-{[(4-chlorophenyl)thio]carbonyl}-2-(difluoromethyl)-4-(2-methylpropyl)-6-(trifluoromethyl)-3-pyridinecarboxylate]		94 to 96.5 °C	50 µM	
COC(=O)c1c(C(F)F)nc(C(F)(F)F)c(C(=O)Sc2cc(Cl)ccc2Cl)c1CC(C)C [Compound 163, Methyl 5-{[(2,5-Dichlorophenyl)thio]carbonyl}-2-(difluoromethyl)-4-(2-methylpropyl)-6-(trifluoromethyl)-3-pyridinecarboxylate]		112.5 to 113.5 °C	65 µM	
COC(=O)c1c(C(F)F)nc(C(F)(F)F)c(C(=O)Sc2c(Cl)cccc2Cl)c1CC(C)C [Compound 164, Methyl 5-{[(2,6-Dichlorophenyl)thio]carbonyl}-2-(difluoromethyl)-4-(2-methylpropyl)-6-(trifluoromethyl)-3-pyridinecarboxylate]		109.5 to 112.5 °C	50 µM	
COC(=O)c1c(C(F)F)nc(C(F)(F)F)c(C(=O)Oc2ccc(Cl)cc2)c1CC(C)C [Compound 173, 3-Methyl 5-(4-Chlorophenyl) 2-(Difluoromethyl)-4-(2-methylpropyl)-6-(trifluoromethyl)-3,5-pyridicarboxylate]		81.5 to 82.5 °C	45 µM	
COC(=O)c1c(C(F)F)nc(C(F)(F)F)c(C(=O)Oc2cc(C)cc(C)c2)c1CC(C)C [Compound 174, 3-Methyl 5-(3,5-Dimethylphenyl) 2-(Difluoromethyl)-4-(2-methylpropyl)-6-(trifluoromethyl)-3,5-pyridicarboxylate]		90.5 to 94 °C	60 µM	
